This is an account of results in patent publication US20250339569A1, “CARBONIC ANHYDRASE IX LIGANDS” (priority 2021, published 2025).

Starred links: 1 amine or outer side, 2 acyl side, 3 side chain; linkers in the order of their positions; H or OH if unused. Positions of bridges follow the written chain, without caps; N, C: chain ends. Non-standard residues stand in square brackets, D forms with d. Residues, ends and D or L forms follow the SMILES beside them. Groups on a side chain read outwards from the residue. *: point of attachment. NH(CH2)3NH(O2Oc(DOTA)) = O=C(O)CN1CCN(CC(=O)O)CCN(CC(=O)NCCOCCOCC(=O)NCCCN*)CCN(CC(=O)O)CC1; DOTA = O=C(O)CN1CCN(CC(=O)O)CCN(CC(=O)*)CCN(CC(=O)O)CC1; Bip = N[C@@H](Cc1ccc(-c2ccccc2)cc1)C(=O)O; Phe(4-NH2) = Nc1ccc(C[C@H](N)C(=O)O)cc1; Desaminotyrosyl = O=C(CCc1ccc(O)cc1)*; mXylylene = c1cc(C[*:1])cc(C[*:2])c1; Orn(Me2) = CN(C)CCC[C@H](N)C(=O)O; X2 = O=C(CN1CCC(N[*:1])CC1)[*:2]; X65 = NS(=O)(=O)c1ccc(C(=O)*)cn1; X1 = O=C(CN1CCN([*:1])CC1)[*:2]; αMeL = CC(C)C[C@](C)(N)C(=O)O; 4Amb = NCc1ccc(C(=O)O)cc1; Isovaleryl = CC(C)CC(=O)*; X45 = COCc1cc(CN*)on1; Aib = CC(C)(N)C(=O)O; βAla = NCCC(=O)O

In the first test the target is T1, CAIX-expressing human HT-29 colorectal cancer cells (Homo sapiens, UniProt Q16790).
T1 construct: CAIX-expressing human HT-29 colorectal cancer cells; host or cells: HT-29 human colorectal cancer cells
Kind of test: FACS binding assay (IC50 determination, competition with tracer 3BP-2776 or 3BP-4149). Particulars: FACS binding assay, HT-29 cells, competition with tracer 3BP-2776 (10 nM, biotin-labeled), 4° C., 1 hour; read-out: pIC50 category (activity) (converted). An outline of the steps: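 HT-29 cells in FACS buffer (PBS, 1% FCS) at 500.000 cells/ml were exposed to compounds competing with a labelled tracer, with biotinylated compounds detected by 1 μg/mL APC-streptavidin for 30 min on ice. APC/Cy5 median fluorescence was read by flow cytometry and IC50 derived by 4PL fit.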
(In general: In flow cytometry, cells or beads pass a laser one at a time.)
Take `CC(C)C[C@]1(C)NC(=O)[C@H](Cc2c[nH]c3ccccc23)NC(=O)[C@H](CC(=O)O)NC(=O)[C@H]2CCCN2C(=O)[C@H](CCC(=O)O)NC(=O)[C@@H](NC(=O)[C@H](Cc2ccc(O)cc2)NC(=O)[C@@H](NC(=O)CN2CCC(NC(=O)CN3CCN(CC(=O)O)CCN(CC(=O)O)CCN(CC(=O)O)CC3)CC2)C(C)C)CSCc2cccc(c2)CSC[C@@H](C(N)=O)NC(=O)[C@H](CO)NC(=O)[C@H](Cc2c[nH]c3ccccc23)NC(=O)[C@H]([C@@H](C)O)NC1=O` [3BP-4106] ({DOTA}-[X2]VYCE[dP]DW[αMeL]TWSC-NH2; linker 4-13 via mXylylene): the IC50 is 10 to 79.4 nM.

With `CC(C)C[C@@H]1NC(=O)[C@H](Cc2c[nH]c3ccccc23)NC(=O)[C@H](CC(=O)O)NC(=O)[C@H]2CCCN2C(=O)[C@H](CCC(=O)O)NC(=O)[C@@H](NC(=O)[C@H](Cc2ccc(O)cc2)NC(=O)[C@@H](NC(=O)CN2CCC(NC(=O)CN3CCN(CC(=O)O)CCN(CC(=O)O)CCN(CC(=O)O)CC3)CC2)C(C)C)CSCc2cccc(c2)CSC[C@@H](C(N)=O)NC(=O)[C@H](CCCN(C)C)NC(=O)[C@H](Cc2c[nH]c3ccccc23)NC(=O)[C@H]([C@@H](C)O)NC1=O` [3BP-4100] ({DOTA}-[X2]VYCE[dP]DWLTW[Orn(Me2)]C-NH2; linker 4-13 via mXylylene), the IC50 was under 10 nM.

Regarding `CC(=O)N[C@H](C(=O)N[C@@H](Cc1ccc(O)cc1)C(=O)N[C@H]1CSCc2cccc(c2)CSC[C@@H](C(N)=O)NC(=O)[C@H](CO)NC(=O)[C@H](Cc2c[nH]c3ccccc23)NC(=O)[C@@H]2CC(=O)NCCCC[C@H](NC(=O)[C@H]3CCCN3C(=O)[C@H](CCC(=O)O)NC1=O)C(=O)N[C@@H](Cc1c[nH]c3ccccc13)C(=O)N[C@@H](CC(C)C)C(=O)N2)C(C)C` [3BP-4046] (Ac-VYCE[dP]KWLDWSC-NH2; linker 3-12 via mXylylene; lactam 6-9), the IC50 is 10 to 79.4 nM.

With `CC(C)C[C@@H]1NC(=O)[C@H](Cc2ccc(-c3ccccc3)cc2)NC(=O)[C@H](CC(=O)O)NC(=O)[C@H]2CCCN2C(=O)[C@H](CCC(=O)O)NC(=O)[C@@H](NC(=O)[C@H](Cc2ccc(O)cc2)NC(=O)[C@@H](NC(=O)CN2CCC(NC(=O)CN3CCN(CC(=O)O)CCN(CC(=O)O)CCN(CC(=O)O)CC3)CC2)C(C)C)CSCc2cccc(c2)CSC[C@@H](C(N)=O)NC(=O)[C@H](CO)NC(=O)[C@H](Cc2c[nH]c3ccccc23)NC(=O)[C@H]([C@@H](C)O)NC1=O` [3BP-4131] ({DOTA}-[X2]VYCE[dP]D[Bip]LTWSC-NH2; linker 4-13 via mXylylene), the IC50 was under 10 nM.

The same test, now with this note: FACS binding assay, HT-29 cells, competition with tracer 3BP-4149 (3 nM, Cy5-labeled), 4° C., 1 hour; read-out: pIC50 category (activity) (converted).
With `COCc1cc(CNC(=O)CC[C@@H]2NC(=O)[C@H]3CCCN3C(=O)[C@H](CCC(=O)O)NC(=O)[C@@H](NC(=O)[C@H](Cc3ccc(O)cc3)NC(=O)[C@@H](NC(=O)CN3CCC(NC(=O)CN4CCN(CC(=O)O)CCN(CC(=O)O)CCN(CC(=O)O)CC4)CC3)C(C)C)CSCc3cccc(c3)CSC[C@@H](C(N)=O)NC(=O)[C@H](CO)NC(=O)[C@H](Cc3c[nH]c4ccccc34)NC(=O)[C@H]([C@@H](C)O)NC(=O)[C@H](CC(C)C)NC(=O)[C@H](Cc3c[nH]c4ccccc34)NC2=O)on1` [3BP-4339] ({DOTA}-[X2]VYCE[dP]E(X45)WLTWSC-NH2; linker 4-13 via mXylylene), the IC50 is 10 to 79.4 nM.

Take `CC(C)C[C@@H]1NC(=O)[C@H](Cc2ccc(NC(=O)c3ccc(S(N)(=O)=O)nc3)cc2)NC(=O)[C@H](CC(=O)O)NC(=O)[C@H]2CCCN2C(=O)[C@H](CCC(=O)O)NC(=O)[C@@H](NC(=O)[C@H](CCC(N)=O)NC(=O)CN2CCN(C(=O)CN3CCN(CC(=O)O)CCN(CC(=O)O)CCN(CC(=O)O)CC3)CC2)CSCc2cccc(c2)CSC[C@@H](C(N)=O)NC(=O)[C@H](CO)NC(=O)[C@H](Cc2c[nH]c3ccccc23)NC(=O)[C@H]([C@@H](C)O)NC1=O` [3BP-4481] ({DOTA}-[X1]QCE[dP]D[Phe(4-NH2)](X65)LTWSC-NH2; linker 3-12 via mXylylene): the IC50 is 100 to 794 nM.

Consider `CC(C)C[C@@H]1NC(=O)[C@H](Cc2c[nH]c3ccccc23)NC(=O)[C@H](CCC(=O)NCc2ccc(C(N)=O)cc2)NC(=O)[C@H]2CCCN2C(=O)[C@H](CCC(=O)O)NC(=O)[C@@H](NC(=O)[C@H](Cc2ccc(O)cc2)NC(=O)[C@@H](NC(=O)CN2CCC(NC(=O)CN3CCN(CC(=O)O)CCN(CC(=O)O)CCN(CC(=O)O)CC3)CC2)C(C)C)CSCc2cccc(c2)CSC[C@@H](C(N)=O)NC(=O)[C@H](CO)NC(=O)[C@H](Cc2c[nH]c3ccccc23)NC(=O)[C@H]([C@@H](C)O)NC1=O` [3BP-4345] ({DOTA}-[X2]VYCE[dP]E([4Amb-NH2])WLTWSC-NH2; linker 4-13 via mXylylene), for which the IC50 is 10 to 79.4 nM.

The same test, now with this note: FACS competition on HT-29 cells, Tracer ID 3BP-2776 (10 nM, biotin-labeled), 4° C., 1 hour; read-out: pIC50 category (activity) (converted).
For `CC(=O)N[C@H](C(=O)N[C@@H](Cc1ccc(O)cc1)C(=O)N[C@H]1CSCc2cccc(c2)CSC[C@@H](C(N)=O)NC(=O)[C@H](CO)NC(=O)[C@H](Cc2c[nH]c3ccccc23)NC(=O)[C@@H]2CCC(=O)NCCCC[C@H](NC(=O)[C@H]3CCCN3C(=O)[C@H](CCC(=O)O)NC1=O)C(=O)N[C@@H](Cc1c[nH]c3ccccc13)C(=O)N[C@@H](CC(C)C)C(=O)N2)C(C)C` [3BP-3890] (Ac-VYCE[dP]KWLEWSC-NH2; linker 3-12 via mXylylene; lactam 6-9), the IC50 is under 10 nM.

Turning to `CC(=O)N[C@H](C(=O)N[C@@H](Cc1ccc(O)cc1)C(=O)N[C@H]1CSCc2cccc(c2)CSC[C@@H](C(N)=O)NC(=O)[C@H](CCC(N)=O)NC(=O)[C@H](Cc2c[nH]c3ccccc23)NC(=O)[C@H]([C@@H](C)O)NC(=O)[C@H](C)NC(=O)[C@H](Cc2c[nH]c3ccccc23)NC(=O)[C@H](CC(=O)O)NC(=O)CNC(=O)[C@H](CCC(=O)O)NC1=O)C(C)C` [3BP-3055] (Ac-VYCEGDWATWQC-NH2; linker 3-12 via mXylylene), the IC50 is 100 to 794 nM.

Turning to `CC(C)C[C@@H]1NC(=O)[C@H](Cc2ccccc2)NC(=O)[C@H](CC(=O)O)NC(=O)[C@H]2CCCN2C(=O)[C@H](CCC(=O)O)NC(=O)[C@@H](NC(=O)[C@H](Cc2ccc(O)cc2)NC(=O)[C@@H](NC(=O)CN2CCC(NC(=O)CN3CCN(CC(=O)O)CCN(CC(=O)O)CCN(CC(=O)O)CC3)CC2)C(C)C)CSCc2cccc(c2)CSC[C@@H](C(N)=O)NC(=O)[C@H](CO)NC(=O)[C@H](Cc2c[nH]c3ccccc23)NC(=O)[C@H]([C@@H](C)O)NC1=O` [3BP-3596] ({DOTA}-[X2]VYCE[dP]DFLTWSC-NH2; linker 4-13 via mXylylene), the IC50 was under 10 nM.

With `CSCC[C@H](NC(C)=O)C(=O)N[C@H](C(=O)N[C@@H](Cc1ccc(O)cc1)C(=O)N[C@H]1CSCc2cccc(c2)CSC[C@@H](C(N)=O)NC(=O)[C@H](CCC(N)=O)NC(=O)[C@H](Cc2c[nH]c3ccccc23)NC(=O)[C@H]([C@@H](C)O)NC(=O)[C@H](CC(C)C)NC(=O)[C@H](Cc2c[nH]c3ccccc23)NC(=O)[C@H](CC(=O)O)NC(=O)CNC(=O)[C@H](CCC(=O)O)NC1=O)C(C)C` [3BP-2836] (Ac-MVYCEGDWLTWQC-NH2; linker 4-13 via mXylylene), the IC50 is 100 to 794 nM.

With `CC(C)CC(=O)N[C@@H](Cc1ccccc1)C(=O)N[C@H]1CSCc2cccc(c2)CSC[C@@H](C(N)=O)NC(=O)[C@H](CCC(=O)NCCCNC(=O)COCCOCCNC(=O)CN2CCN(CC(=O)O)CCN(CC(=O)O)CCN(CC(=O)O)CC2)NC(=O)[C@H](Cc2c[nH]c3ccccc23)NC(=O)[C@H]([C@@H](C)O)NC(=O)[C@H](CC(C)C)NC(=O)[C@H](Cc2c[nH]c3ccccc23)NC(=O)[C@H](CC(=O)O)NC(=O)[C@H]2CCCN2C(=O)[C@H](CCC(=O)O)NC1=O` [3BP-3742] (Isovaleryl-FCE[dP]DWLTWE(NH(CH2)3NH(O2Oc(DOTA)))C-NH2; linker 2-11 via mXylylene), the IC50 was under 10 nM.

Regarding `CC(=O)N[C@H](C(=O)N[C@@H](Cc1ccc(O)cc1)C(=O)N[C@H]1CSCc2cccc(c2)CSC[C@@H](C(N)=O)NC(=O)[C@H](CCC(N)=O)NC(=O)[C@H](Cc2c[nH]c3ccccc23)NC(=O)[C@H]([C@@H](C)O)NC(=O)[C@H](CC(C)C)NC(=O)[C@H](Cc2c[nH]c3ccccc23)NC(=O)[C@H](CC(=O)O)NC(=O)C(C)(C)NC(=O)[C@H](CCC(=O)O)NC1=O)C(C)C` [3BP-3059] (Ac-VYCE[Aib]DWLTWQC-NH2; linker 3-12 via mXylylene), the IC50 was under 10 nM.

In the case of `CC(=O)N[C@H](C(=O)N[C@@H](Cc1ccc(O)cc1)C(=O)N[C@H]1CSCc2cccc(c2)CSC[C@@H](C(N)=O)NC(=O)[C@H](C)NC(=O)[C@H](Cc2c[nH]c3ccccc23)NC(=O)[C@H]([C@@H](C)O)NC(=O)C(C)(C)NC(=O)[C@H](Cc2c[nH]c3ccccc23)NC(=O)[C@H](CC(=O)O)NC(=O)[C@H]2CCCN2C(=O)[C@H](CCC(=O)O)NC1=O)C(C)C` [3BP-3502] (Ac-VYCE[dP]DW[Aib]TWAC-NH2; linker 3-12 via mXylylene), the IC50 was 10 to 79.4 nM.

With `CC(C)C[C@@H]1NC(=O)[C@H](Cc2c[nH]c3ccccc23)NC(=O)[C@H](CC(=O)O)NC(=O)[C@H]2CCCN2C(=O)[C@H](CCC(=O)O)NC(=O)[C@@H](NC(=O)CCc2ccc(O)cc2)CSCc2cccc(c2)CSC[C@@H](C(N)=O)NC(=O)[C@H](CO)NC(=O)[C@H](Cc2c[nH]c3ccccc23)NC(=O)[C@H]([C@@H](C)O)NC1=O` [3BP-3731] (Desaminotyrosyl-CE[dP]DWLTWSC-NH2; linker 1-10 via mXylylene), the IC50 is 10 to 79.4 nM.

As to `CC(=O)N[C@H](C(=O)N[C@@H](Cc1ccc(O)cc1)C(=O)N[C@@H]1CSCc2cccc(c2)CSC[C@@H](C(N)=O)NC(=O)[C@H](CO)NC(=O)[C@H](Cc2c[nH]c3ccccc23)NC(=O)[C@H]([C@@H](C)O)NC(=O)[C@H](CC(C)C)NC(=O)[C@H](Cc2c[nH]c3ccccc23)NC(=O)CCNC1=O)C(C)C` [3BP-3604] (Ac-VY[dC][βAla]WLTWSC-NH2; linker 3-10 via mXylylene), the IC50 was 100 to 794 nM.
